Results: patent US12012417B2, “N-substituted tetrahydrothienopyridine derivatives and uses thereof” (NOVARTIS AG, priority 2018, dated 2024)
Where two headings read alike, the source gives them in different places.

Key:
[1] = test system: Dengue 4 virus MY01-22713; assay: High-content imaging cell-based flavivirus immunodetection (HCl-CFI) assay, Dengue 4; settings: Dengue virus, A549, 48 h
[2] = test system: Dengue 1 virus MY97-10245; assay: High-content imaging cell-based flavivirus immunodetection (HCl-CFI) assay, Dengue 1; settings: Dengue virus, A549, 48 h, read-out: Dengue 1 virus MY97-10245 in A549 using HCl [Inhibitor/IC50] Qualified AC50
[3] = test system: Dengue 3 virus MY05-34640-WT-C6/36; assay: High-content imaging cell-based flavivirus immunodetection (HCl-CFI) assay, Dengue 3; settings: Dengue virus, A549, 48 h, read-out: Dengue 3 virus MY05-34640-WT-C6/36 in A549 using HCl [Inhibitor/IC50] Qualified AC50
[4] = test system: Dengue 2 virus MY97-10340; assay: High-content imaging cell-based flavivirus immunodetection (HCl-CFI) assay, Dengue 2; settings: Dengue virus, A549, 48 h
How it was run: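 A549 cells infected at MOI 0.3, treated with 3-fold, 10-point compound dilutions for 48 h. After paraformaldehyde fixation, viral E protein immunostained with 4G2 antibody and nuclei counterstained; imaged by high-content imaging. EC50 = concentration reducing E protein expression by 50%, from dose-response curves.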

[5] = read-out: Dengue 4 virus MY01-22713 in A549 using HCl [Inhibitor/IC50] Qualified AC50, A549 cells, 48 h, viral E protein expression
[6] = read-out: Dengue 2 virus MY97-10340 in A549 using HCl [Inhibitor/IC50] Qualified AC50, A549 cells, MOI 0.3, 48 h, viral E protein expression

## CNS(=O)(=O)c1ccc(CC(=O)Nc2sc3c(c2C#N)CN(Cc2cccc(F)c2)CC3)cc1 [Example 29, N-(3-cyano-5-(3-fluorobenzyl)-4,5,6,7-tetrahydrothieno[3,2-c]pyridin-2-yl)-2-(4-(N-methylsulfamoyl)phenyl)acetamide]
[1]; [5]
  EC50: < 100 nM
[2]
  EC50: 100 to 1000 nM
[3]
  EC50: < 100 nM
[4]; [6]
  EC50: < 100 nM

## COc1cc(CC(=O)Nc2sc3c(c2C#N)CN(Cc2cccc(F)c2)CC3)ccc1S(C)(=O)=O [Example 30, N-(3-cyano-5-(3-fluorobenzyl)-4,5,6,7-tetrahydrothieno[3,2-c]pyridin-2-yl)-2-(3-methoxy-4-(methylsulfonyl)phenyl)acetamide]
[1]; [5]
  EC50: < 100 nM
[2]
  EC50: 100 to 1000 nM
[3]
  EC50: < 100 nM
[4]; [6]
  EC50: < 100 nM

## COCCOc1cccc(CC(=O)Nc2sc3c(c2C#N)CN(Cc2cccc(F)c2)CC3)c1 [Example 31, N-(3-cyano-5-(3-fluorobenzyl)-4,5,6,7-tetrahydrothieno[3,2-c]pyridin-2-yl)-2-(3-(2-methoxyethoxy)phenyl)acetamide]
[1]; [5]
  EC50: 100 to 1000 nM
[2]
  EC50: > 1000 nM
[3]
  EC50: 100 to 1000 nM
[4]; [6]
  EC50: 100 to 1000 nM

## CS(=O)(=O)Cc1ccc(CC(=O)Nc2sc3c(c2C#N)CN(Cc2cccc(F)c2)CC3)cc1 [Example 32, N-(3-cyano-5-(3-fluorobenzyl)-4,5,6,7-tetrahydrothieno[3,2-c]pyridin-2-yl)-2-(4-((methylsulfonyl)methyl)phenyl)acetamide]
[1]; [5]
  EC50: < 100 nM
[2]
  EC50: 100 to 1000 nM
[3]
  EC50: < 100 nM
[4]; [6]
  EC50: 100 to 1000 nM

## N#Cc1c(NC(=O)Cc2ccc3c(c2)CCS3(=O)=O)sc2c1CN(Cc1cccc(F)c1)CC2 [Example 33, N-(3-cyano-5-(3-fluorobenzyl)-4,5,6,7-tetrahydrothieno[3,2-c]pyridin-2-yl)-2-(1,1-dioxido-2,3-dihydrobenzo[b]thiophen-5-yl)acetamide]
[1]; [5]
  EC50: < 100 nM
[2]
  EC50: 100 to 1000 nM
[3]
  EC50: < 100 nM
[4]; [6]
  EC50: 100 to 1000 nM

## COc1cccc(CC(=O)Nc2sc3c(c2C#N)CN(Cc2cccc(F)c2)CC3)c1OC [Example 34, N-(3-cyano-5-(3-fluorobenzyl)-4,5,6,7-tetrahydrothieno[3,2-c]pyridin-2-yl)-2-(2,3-dimethoxyphenyl)acetamide]
[1]; [5]
  EC50: 100 to 1000 nM
[2]
  EC50: > 1000 nM
[3]
  EC50: 100 to 1000 nM
[4]; [6]
  EC50: > 1000 nM

## COc1cc(F)cc(CC(=O)Nc2sc3c(c2C#N)CN(Cc2cccc(F)c2)CC3)c1 [Example 35, N-(3-cyano-5-(3-fluorobenzyl)-4,5,6,7-tetrahydrothieno[3,2-c]pyridin-2-yl)-2-(3-fluoro-5-methoxyphenyl)acetamide]
[1]; [5]
  EC50: 100 to 1000 nM
[2]
  EC50: > 1000 nM
[3]
  EC50: 100 to 1000 nM
[4]; [6]
  EC50: 100 to 1000 nM

## CS(=O)(=O)n1ccc(CC(=O)Nc2sc3c(c2C#N)CN(Cc2cccc(F)c2)CC3)c1 [Example 36, N-(3-cyano-5-(3-fluorobenzyl)-4,5,6,7-tetrahydrothieno[3,2-c]pyridin-2-yl)-2-(1-(methylsulfonyl)-1H-pyrrol-3-yl)acetamide]
[1]; [5]
  EC50: 100 to 1000 nM
[2]
  EC50: > 1000 nM
[3]
  EC50: 100 to 1000 nM
[4]; [6]
  EC50: 100 to 1000 nM

## CCOc1cc(CC(=O)Nc2sc3c(c2C#N)CN(Cc2cccc(F)c2)CC3)ccc1S(C)(=O)=O [Example 37, N-(3-cyano-5-(3-fluorobenzyl)-4,5,6,7-tetrahydrothieno[3,2-c]pyridin-2-yl)-2-(3-ethoxy-4-(methylsulfonyl)phenyl)acetamide]
[1]; [5]
  EC50: < 100 nM
[2]
  EC50: 100 to 1000 nM
[3]
  EC50: < 100 nM
[4]; [6]
  EC50: < 100 nM

## COc1cc(C#N)cc(CC(=O)Nc2sc3c(c2C#N)CN(Cc2cccc(F)c2)CC3)c1 [Example 38, N-(3-cyano-5-(3-fluorobenzyl)-4,5,6,7-tetrahydrothieno[3,2-c]pyridin-2-yl)-2-(3-cyano-5-methoxyphenyl)acetamide]
[1]; [5]
  EC50: 100 to 1000 nM
[2]
  EC50: > 1000 nM
[3]
  EC50: 100 to 1000 nM
[4]; [6]
  EC50: 100 to 1000 nM

## COc1cc(Cl)cc(CC(=O)Nc2sc3c(c2C#N)CN(Cc2cccc(F)c2)CC3)c1 [Example 39, 2 (3 chloro-5-methoxyphenyl)-N-(3-cyano-5-(3-fluorobenzyl)-4,5,6,7-tetrahydrothieno[3,2-c]pyridin-2-yl)acetamide]
[1]; [5]
  EC50: 100 to 1000 nM
[2]
  EC50: > 1000 nM
[3]
  EC50: 100 to 1000 nM
[4]; [6]
  EC50: > 1000 nM

## COc1cccc(CC(=O)Nc2sc3c(c2C#N)CN(Cc2cccc(F)c2)CC3)c1F [Example 40, N-(3-cyano-5-(3-fluorobenzyl)-4,5,6,7-tetrahydrothieno[3,2-c]pyridin-2-yl)-2-(2-fluoro-3-methoxyphenyl)acetamide]
[1]; [5]
  EC50: 100 to 1000 nM
[2]
  EC50: > 1000 nM
[3]
  EC50: 100 to 1000 nM
[4]; [6]
  EC50: 100 to 1000 nM

## COc1cccc(CC(=O)Nc2sc3c(c2C#N)CN(Cc2cccc(F)c2)CC3)c1Cl [Example 41, 2-(2-chloro-3-methoxyphenyl)-N-(3-cyano-5-(3-fluorobenzyl)-4,5,6,7-tetrahydrothieno[3,2-c]pyridin-2-yl)acetamide]
[1]; [5]
  EC50: 100 to 1000 nM
[2]
  EC50: > 1000 nM
[3]
  EC50: 100 to 1000 nM
[4]; [6]
  EC50: 100 to 1000 nM

## CC1(C)CS(=O)(=O)c2ccc(CC(=O)Nc3sc4c(c3C#N)CN(Cc3cccc(F)c3)CC4)cc21 [Example 42, N-(3-cyano-5-(3-fluorobenzyl)-4,5,6,7-tetrahydrothieno[3,2-c]pyridin-2-yl)-2-(3,3-dimethyl-1,1-dioxido-2,3-dihydrobenzo[b]thiophen-5-yl)acetamide]
[1]; [5]
  EC50: < 100 nM
[2]
  EC50: 100 to 1000 nM
[3]
  EC50: < 100 nM
[4]; [6]
  EC50: < 100 nM

## N#Cc1c(NC(=O)Cc2ccc(S(N)(=O)=O)c(F)c2)sc2c1CN(Cc1cccc(F)c1)CC2 [Example 43, N-(3-cyano-5-(3-fluorobenzyl)-4,5,6,7-tetrahydrothieno[3,2-c]pyridin-2-yl)-2-(3-fluoro-4-sulfamoylphenyl)acetamide]
[1]; [5]
  EC50: < 100 nM
[2]
  EC50: 100 to 1000 nM
[3]
  EC50: < 100 nM
[4]; [6]
  EC50: < 100 nM

## COP(C)(=O)c1ccc(CC(=O)Nc2sc3c(c2C#N)CN(Cc2cccc(F)c2)CC3)cc1 (centres unmarked) [Example 44, Methyl (4-(2-((3-cyano-5-(3-fluorobenzyl)-4,5,6,7-tetrahydrothieno[3,2-c]pyridin-2-yl)amino)-2-oxoethyl)phenyl)(methyl)phosphinate]
[1]; read-out: Dengue 4 virus MY01-22713 in A549 using HCl [Inhibitor/IC50] Qualified AC50
  EC50: 100 to 1000 nM
[2]
  EC50: > 1000 nM
[3]
  EC50: 100 to 1000 nM
[4]; read-out: Dengue 2 virus MY97-10340 in A549 using HCl [Inhibitor/IC50] Qualified AC50
  EC50: 100 to 1000 nM

## N#Cc1c(NC(=O)Cc2ccc(S(=O)(=O)C(F)F)cc2)sc2c1CN(Cc1cccc(F)c1)CC2 [Example 45, N-(3-cyano-5-(3-fluorobenzyl)-4,5,6,7-tetrahydrothieno[3,2-c]pyridin-2-yl)-2-(4-((difluoromethyl)sulfonyl)phenyl)acetamide]
[1]; [5]
  EC50: 100 to 1000 nM
[2]
  EC50: > 1000 nM
[3]
  EC50: 100 to 1000 nM
[4]; [6]
  EC50: > 1000 nM

## CS(=O)(=O)Nc1ccc(CC(=O)Nc2sc3c(c2C#N)CN(Cc2cccc(F)c2)CC3)cc1 [Example 46, N-(3-cyano-5-(3-fluorobenzyl)-4,5,6,7-tetrahydrothieno[3,2-c]pyridin-2-yl)-2-(4-(methylsulfonamido)phenyl)acetamide]
[1]; [5]
  EC50: 100 to 1000 nM
[2]
  EC50: 100 to 1000 nM
[3]
  EC50: 100 to 1000 nM
[4]; [6]
  EC50: 100 to 1000 nM

## CN(C)S(=O)(=O)c1ccc(CC(=O)Nc2sc3c(c2C#N)CN(Cc2cccc(F)c2)CC3)cc1 [Example 47, N-(3-cyano-5-(3-fluorobenzyl)-4,5,6,7-tetrahydrothieno[3,2-c]pyridin-2-yl)-2-(4-(N,N-dimethylsulfamoyl)phenyl)acetamide]
[1]; [5]
  EC50: 100 to 1000 nM
[2]
  EC50: 100 to 1000 nM
[3]
  EC50: < 100 nM
[4]; [6]
  EC50: < 100 nM

## COc1cc(CC(=O)N(C)c2sc3c(c2C#N)CN(CC2CCCCC2)CC3)ccc1S(N)(=O)=O [Example 48, N-(3-cyano-5-(cyclohexylmethyl)-4,5,6,7-tetrahydrothieno[3,2-c]pyridin-2-yl)-2-(3-methoxy-4-sulfamoylphenyl)-N-methylacetamide]
[1]; [5]
  EC50: > 1000 nM
[2]
  EC50: > 1000 nM
[3]
  EC50: > 1000 nM
[4]; [6]
  EC50: > 1000 nM

## COc1cc(CC(=O)Nc2sc3c(c2C#N)C(C)(C)N(Cc2ccccc2)CC3)ccc1S(N)(=O)=O [Example 49, N-(5-benzyl-3-cyano-4,4-dimethyl-4,5,6,7-tetrahydrothieno[3,2-c]pyridin-2-yl)-2-(3-methoxy-4-sulfamoylphenyl)acetamide]
[1]; [5]
  EC50: > 1000 nM
[2]
  EC50: > 1000 nM
[3]
  EC50: 100 to 1000 nM
[4]; [6]
  EC50: 100 to 1000 nM

## COc1cc(CC(=O)Nc2sc3c(c2C#N)CN(CC2CC(F)(F)C2)CC3)ccc1S(N)(=O)=O [Example 50, N-(3-cyano-5-((3,3-difluorocyclobutyl)methyl)-4,5,6,7-tetrahydrothieno[3,2-c]pyridin-2-yl)-2-(3-methoxy-4-sulfamoylphenyl)acetamide]
[1]; [5]
  EC50: 100 to 1000 nM
[2]
  EC50: 100 to 1000 nM
[3]
  EC50: 100 to 1000 nM
[4]; [6]
  EC50: 100 to 1000 nM

## COc1cc(CC(=O)Nc2sc3c(c2C#N)CN(CC2CC(F)(F)C2)CC3)ccc1S(C)(=O)=O [Example 51, N-(3-cyano-5-((3,3-difluorocyclobutyl)methyl)-4,5,6,7-tetrahydrothieno[3,2-c]pyridin-2-yl)-2-(3-methoxy-4-(methylsulfonyl)phenyl)acetamide]
[1]; [5]
  EC50: 100 to 1000 nM
[2]
  EC50: 100 to 1000 nM
[3]
  EC50: 100 to 1000 nM
[4]; [6]
  EC50: 100 to 1000 nM
